Results published in patent US20260014129A1, “MITOCHONDRIAL PYRUVATE METABOLISM INHIBITORS FOR TREATING CHRONIC MYELOID LEUKEMIA” (The University Court of the University of Glasgow, priority 2022, published 2026).

Tests used:
CML CD34+ cells [1] = assay: LC-MS steady state metabolite analysis of primary CML CD34+ cells; assay type: cell-based, human
Procedure: (§1) Cells were counted using a CASY counter with the following parameters: E-cur 7.5-22.5, N-cur 5.25-20.5. Cell number was multiplied by peak volume (size) and this number was used to calculate volume of solvent to extract in. Cells were pelleted by centrifugation (400 RCF, 10 minutes, room temperature) at which medium was removed for YSI analysis. Cells were then washed twice with ice cold PBS (Calcium and Magnesium free: Thermo Fisher Scientific) with pulse centrifugation (12,000RCF, 15 seconds, 4° C.) used between and after washes. Cells were then extracted in LC-grade ACN:MeOH:H2O solvent (−20° C., 5:3:2) by disrupting the pellet by pipetting followed by a 5 second vortex. Finally, debris was pelleted by centrifugation (16,000RCF, 10 minutes, 4° C.), supernatant transferred to LC-MS glass vials that were stored at −80° C. until analysis.
The LC system composed of a ZIC-pHILIC column (SeQuant, 150×2.1 mm, 5 μm, Merck KGaA) with a ZIC-pHILIC guard column (SeQuant, 20×2.1 mm) with an UltiMate 3000 HPLC system (Thermo Fisher Scientific). The aqueous mobile-phase solvent was 20 mM ammonium carbonate-0.1% ammonium hydroxide solution and with acetonitrile being used for organic mobile phase. A linear biphasic LC gradient was conducted from 80% organic to 80% aqueous for 15 min for a total run time of 22 min. The column temperature was maintained at 45° C. flow rate set to 200 μL/min.
The MS used in this study was a qExactive Plus Orbitrap Mass Spectrometer (Thermo Fisher Scientific) operating in polarity switching mode. The MS set up was calibrated using a custom CALMIX in both ionization modes before analysis and a tune file targeted towards the lower m/z range was used. Full scan (MS1) data was acquired in both ionization modes in profile mode at 70,000 resolution (at m/z range 75-1000), an automatic gain control (AGC) target of 1×10^6 (max fill time of 250 ms), with spray voltages +4.5 kV (capillary +50V, tube: […], skimmer: +20V) and −3.5 kV (capillary −50V, tube: […], skimmer: −20V) and s-lens RF level of 50 for the front optics. The capillary temperature 375° C., probe temperature 50′C, sheath gas flow rate 25, auxiliary gas flow rate 15a.u. 15 and sweep gas flow rate of 1a.u.
(§2) The peak areas of different metabolites were determined using Tracefinder 4.1 software (Thermo Fisher Scientific). Metabolites were identified by accurate mass of the singly charged ion and by known retention times on the pHILIC column. A commercially available standard compound mix (Merck: MSMLS-1EA) had been analysed previously on our LC-MS system to determine accurate ion masses and retention times. The 13C labelling was determined by quantifying peak areas for the accurate mass of all isotopologues of each metabolite.
Two independent experiments were performed, data normalised to first sample in each experiment, processed through Autoplotter (56), samples as experiments, and normalised data as replicates. […] For MSDC-0160 treated samples a batch correction (to non-drug control) was used prior to analysis using Metabonalyst. Volcano plots were generated, and an FDR adjusted t-test threshold 0.1 was utilised. Note both fold changes and p-values are log transformed. Top-25 scoring metabolites are included in heatmap.

CML CD34+ cells [2] = assay: 13C stable isotope tracing (glucose, glutamine, palmitate) in primary CML CD34+ cells; assay type: cell-based, human
Procedure: For conjugation of palmitate, a 20 mM stock was made in 100% EtOH. This was incubated on a shaking heater, 60° C. until the solution clarified. The palmitate was then added to 10% BSA (ultra-fatty acid free in EBSS, Roche, 03117057001) to give a palmitate:BSA ratio of 1:3 BSA. This solution was left for 15 min in water bath (37° C.), and then added to final concentration in complete medium. For cell line experiments, the medium was RPMI with 10% dialysed FBS and 1% penicillin/streptomycin. For tracing experiments 11 mM ^13C6 glucose was added to glucose-free RPMI.
as §1, §2
Biological and technical replicates were processed through Autoplotter (56) and natural abundance was corrected for. Fraction of enrichment was calculated as m+2 and above. For CML samples treated with or without imatinib, multiple paired T-tests were conducted on Log 10 transformed values in Graphpad Prism. The correction for multiple comparisons was the two-stage step-up method of Benjamini, Krieger and Yekutieli with an FDR (Q) value of 10%. For volcano plots Log 10 FC vs Log 10 (q value) are plotted with q values>5% in red and >10% in blue. For normal vs CML comparisons, the process was the same with the exception that unpaired t-tests were used. For PC activity in normal vs CML, this is denoted by fraction m+3. For imatinib vs untreated we look at relative activity to PDH. IE., the m+3/m+2 ratio and conducted multiple t-tests with correction for multiple comparisons being the two-stage step-up method of Benjamini, Krieger and Yekutieli with an FDR (Q) value of 10%.

CML CD34+ cells [3] = assay: Colony forming cell (CFC) assay of CML CD34+ cells; assay type: cell-based, human; details: 72 hours, n=6 CML patients
normal CD34+ cells = assay: Colony forming cell (CFC) assay of normal CD34+ cells; assay type: cell-based, human; details: 72 hours, n=3 healthy donors
FBS (Bos taurus) = system: T1, FBS (Bos taurus); details: as previously reported (ref 44); cited from earlier work
T1 construct: host or cells: FBS in culture medium
T1 sequence (P02769 25-607): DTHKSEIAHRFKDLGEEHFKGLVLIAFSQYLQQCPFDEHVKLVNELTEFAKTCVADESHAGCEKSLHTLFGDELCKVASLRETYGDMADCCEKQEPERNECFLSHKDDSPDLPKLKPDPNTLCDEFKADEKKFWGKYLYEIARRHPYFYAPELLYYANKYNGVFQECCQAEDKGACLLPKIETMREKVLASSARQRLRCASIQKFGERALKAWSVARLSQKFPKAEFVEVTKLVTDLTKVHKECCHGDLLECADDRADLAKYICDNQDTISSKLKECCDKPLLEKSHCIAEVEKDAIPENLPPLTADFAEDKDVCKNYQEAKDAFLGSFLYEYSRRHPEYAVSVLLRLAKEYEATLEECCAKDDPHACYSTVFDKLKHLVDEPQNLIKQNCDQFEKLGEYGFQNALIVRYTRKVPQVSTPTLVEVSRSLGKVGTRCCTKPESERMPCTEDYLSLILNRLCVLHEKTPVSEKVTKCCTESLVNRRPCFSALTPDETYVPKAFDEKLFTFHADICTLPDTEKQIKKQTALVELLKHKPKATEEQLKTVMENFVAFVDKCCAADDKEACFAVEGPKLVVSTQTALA

CML CD34+ cells [4] = assay: Mitochondrial respiratory capacity (FCCP-induced oxygen consumption rate); assay type: cell-based, human; details: imatinib-treated samples
CML CD34+ cells [5] = assay: Extracellular flux of spent medium by YSI bioanalyser; assay type: cell-based, human
Procedure: A YSI 2900 biochemistry analyser was used as per the manufacturer's instructions to quantify glucose, lactate, glutamine, and glutamate in the media. The concentration of each metabolite was normalised to cell number and the rate of uptake or secretion per hour was calculated relative to cell free medium. The exchange rate per 48 hours [secretion (+) or consumption (−)] for a specific metabolite (x) was obtained according to the following equation:

[6] = imatinib 2 μM, 48 hours, CML CD34+ cells

CCc1ccc(C(=O)COc2ccc(CC3SC(=O)NC3=O)cc2)nc1 (stereo not shown) [MSDC-0160]
dose at which steady state analysis showed significant metabolic changes (CML CD34+ cells [1]; primary CML CD34+ samples, 24 hours, highest dose): 100 µM
m+2 and m+3 fractions of TCA cycle metabolites (CML CD34+ cells [2]; 20 or 100 μM MSDC-0160, primary CML CD34+ samples): significant decreases to both m+2 and m+3 fractions
inhibition of glucose oxidation in primitive CD34+CD38- population (CML CD34+ cells [2]; compared with CD34+CD38+ progenitor population, data not shown): to a similar extent as in the CD34^+CD38^+ progenitor population
inhibition of labelling in stromal co-culture (CML CD34+ cells [2]; presence of stromal cells, 24-hour culture, 50 uM): also achieved in the presence of stromal cells
total glucose contribution and m+3 contribution to TCA cycle metabolites (CML CD34+ cells [2]; primary CML CD34+ samples, 24 hours): reduced both total glucose contribution and m+3 contribution to TCA cycle metabolites in a dose-dependent manner
dose required to fully inhibit labelling (CML CD34+ cells [2]; primary CML CD34+ samples, medium with Albumax II): 100 µM
number of colonies, MSDC-0160 added to imatinib (CML CD34+ cells [3]; 20 or 50 μM MSDC-0160 plus 2 μM imatinib): further concentration-dependent reduction
CFC potential of normal CD34+ cells, single agent (normal CD34+ cells): no significant effect
CFC potential of normal CD34+ cells, combination treatment (normal CD34+ cells; MSDC-0160 plus 2 μM imatinib): no significant effect
binding to FBS (FBS (Bos taurus)): high FBS binding

Cc1ccc(NC(=O)c2ccc(CN3CCN(C)CC3)cc2)cc1Nc1nccc(-c2cccnc2)n1 [imatinib]
ATP levels (CML CD34+ cells [1]; imatinib 2 μM, 48 hours): trend towards reduced ATP levels
oxidative stress, cellular redox and TCA cycle metabolites, steady state (CML CD34+ cells [1]; imatinib 2 μM, 48 hours): decreases
AMP/ATP ratio (CML CD34+ cells [1]; imatinib 2 μM, 48 hours, n=4 patient samples): significant increase in AMP/ATP ratio
glucose incorporation (13C-glucose labelling) in sorted CML CD34+CD38- cells (CML CD34+ cells [2]; imatinib 2 μM, 24 hours, n=3): statistically significant reduction
relative PC/PDH activity in CML CD34+CD38- cells (CML CD34+ cells [2]; imatinib 2 μM, 24 hours, n=3, p-value=0.0870): increased in all three patient samples
PC relative to PDH contribution of glucose (m+3/m+2 ratio in malate, citrate, aspartate) (CML CD34+ cells [2]; [6]): increased
glucose contribution to metabolite fraction labelling (13C6 glucose) (CML CD34+ cells [2]; [6]): reduced
glutamine contribution to metabolite fraction labelling (13C5 glutamine) (CML CD34+ cells [2]; [6]): reduced
palmitate contribution to metabolite fraction labelling (13C16 palmitate) (CML CD34+ cells [2]; [6]): not significantly different
labelled fractions of TCA cycle metabolites affected (CML CD34+ cells [2]; imatinib, primary CML CD34+ samples, not shown): only affected m+2 fractions
mitochondrial respiratory capacity (FCCP-induced oxygen consumption rate) (CML CD34+ cells [4]): reduced
glucose consumption (CML CD34+ cells [5]; imatinib-treated vs control primary CML CD34+ cells): consumed less glucose than control cells, when corrected for a decrease in proliferation this difference disappeared
glutamine consumption (CML CD34+ cells [5]; imatinib-treated vs untreated primary CML CD34+ cells): decreased
number of colonies (CML CD34+ cells [3]; 2 μM imatinib alone): reduced the number of colonies
CFC potential of normal CD34+ cells, single agent (normal CD34+ cells): no significant effect
